“Also recorded” adds a separate entry of the source.
Assays:
[1] = system: Human bone marrow cells from healthy volunteers; experiment: Human HSPC self renewal, methyl cellulose colony re-plating; assay type: cell-based; details: colonies counted after eight days and re-plated until control HSPCs exhausted
Experimental: The human bone marrow cells from healthy volunteers were grown in methyl cellulose in the presence and absence of the compound 1-17 and colony number were counted after eight days in culture and re-plated till control HSPCs were completely exhausted. A. The number of colony and B. the total cellular output.
Human bone marrow cells from healthy volunteers were grown in methyl cellulose in the presence and absence of the compound 1-17 and colony number were counted after eight days in culture and re-plated till control HSPCs were completely exhausted.

[2] = molecular target: T1, recombinant human CD38 full length protein (Homo sapiens, UniProt P28907); experiment: β-NAD+ degradation assay (HPLC, C18); assay type: biochemical; details: purified full length wild type recombinant CD38 incubated with NAD+
T1 construct: The recombinant human CD38 full length protein UniProtKB - P28907 (CD38_HUMAN); His-tag (inferred from the pET28a vector and IMAC purification); made in house
T1 sequence (P28907 1-300): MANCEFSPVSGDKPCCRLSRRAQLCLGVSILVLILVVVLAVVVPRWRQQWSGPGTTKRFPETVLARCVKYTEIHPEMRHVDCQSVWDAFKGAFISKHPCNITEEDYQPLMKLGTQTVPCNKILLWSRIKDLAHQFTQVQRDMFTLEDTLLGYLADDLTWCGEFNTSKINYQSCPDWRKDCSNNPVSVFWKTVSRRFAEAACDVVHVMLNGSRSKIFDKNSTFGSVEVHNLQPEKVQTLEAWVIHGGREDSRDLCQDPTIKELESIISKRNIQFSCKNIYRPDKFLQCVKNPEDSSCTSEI
Experimental: FIGS. 3A-3D provides graphs showing Compound 1-17 inhibits CD38 and protects NAD degradation in vitro. Full length wild type recombinant CD38 was expressed and purified and incubated with NAD and high-performance liquid chromatographic assay using C18 were used to quantify NAD degradation. A. chromatogram with vehicle, B. CD38 incubation for 4 hours at room temperature C.
The recombinant human CD38 full length protein UniProtKB - P28907 (CD38_HUMAN) was cloned into pET28a and purified using IMAC column followed by gel filtration on SephacrylS200. The purified protein (10 µg/ml) was incubated with varying amount of NAD+ in assay buffer ([…], 5 mM MgCl2 at pH 7.0) at 25° C. for 3 hours, reaction was stopped by heat inactivation followed by acetone precipitation of protein the supernatant was vacuum dried and dissolved in water and loaded onto reverse phase C18 column and eluted with a gradient of 0-25% of acetonitrile in water.
Full length wild type recombinant CD38 was expressed and purified and incubated with NAD+ and high-performance liquid chromatographic assay using C18 were used to quantify NAD+ degradation.

[3] = system: undifferentiated normal human fibroblast (NHFB); experiment: Cell proliferation assay, fibroblast life span; assay type: cell-based
Experimental: FIGS. 4A and 4B provide graphs showing NAD protection by compound 1-17 extend life span of undifferentiated normal human fibroblast (NHFB) under in-vitro cell culture conditions. NHFB were either A. young (<8 doubling time) or B. old (>10 doublings) cell cultures were treated with indicated amount of 1-17 in complete growth media.
NHFB were either young (<8 doubling time) (FIG. 4A) or old (>10 doublings) (FIG. 4B). Cell cultures were treated with the indicated amount of 1-17 in complete growth media.

[4] = system: murine bone marrow cells from C57bl6 mice; experiment: Mouse HSPC self renewal, methyl cellulose colony re-plating; assay type: cell-based
Experimental: FIGS. 5A and 5B provide graphs showing Treatment of 1-17 to murine bone marrow expands the colony forming hematopoietic stem cells. The murine bone marrow cells from C57BL6 mice were grown in methyl cellulose in the presence and absence of the compound 1-17 and colony number were counted every week and re-plated. A. The number of colony and B. the total cellular output.
The murine bone marrow cells from C57bl6 mice were grown in methyl cellulose in the presence and absence of compound 1-17. Colony numbers were counted every week and re-plated.
FIG. 5 provides graphs showing that treatment with compound 1-17 increases mouse HSPC self-renewal. […] Additionally, as shown in FIG. 5B directed to total cellular output, cells also proliferate far longer than the vehicle control, maintaining population for an average of 1 to 2 passes after control.

[5] = system: Total Human bone marrow, isolated CD34+ HSPCs, LTC-IC; experiment: Stem cell function, total cellular output in culture; assay type: cell-based
Experimental: Total Human bone marrow A, isolated CD34+ HSPCs B, and long-term culture initiating hematopoietic cells (LTC-IC) C, were grown in the presence and absence of the compound 1-17 and the total cellular output was determined. Compound 1-17 is synergistic with NAD treatment.
Total Human bone marrow, isolated CD34+ HSPCs, and long-term culture initiating hematopoietic cells (LTC-lC), were grown in the presence and absence of compound 1-17 and the total cellular output was determined.

[6] = system: healthy murine bone marrow; experiment: Treatment of healthy mice, hematopoiesis; assay type: in vivo; details: 40 mg/kg
Experimental: The effects of CD38 inhibitor 1-17 and its analogues on hematopoiesis of healthy murine bone marrow were tested. […] Experiments were conducted to determine whether treatment with compound 1-17 has impact on blood counts and NAD+ levels in cells. The inventors treated 9 mice which were sacrificed at 2, 5 and 12 week and blood counts, marrow morphology and cellularity and bone marrow colony formation per 10^6 cell were determined in colony forming assays.

Row | SMILES | colony forming hematopoietic stem and progenitor cells (HSPCs) [1] | inhibition of CD38 NAD+ degradation [2] | doubling time ([3]; NHFB treated with indicated amount of compound) | life span of NHFB in culture ([3]; young (<8 doubling time) or old (>10 doublings) NHFB, complete growth media) | self-renewal of HSPCs in colony numbers and overall cell counts ([4]; mouse bone marrow in methyl cellulose, counted every week and re-plated) | passes for which population is maintained after control ([4]; total cellular output, versus vehicle control) [passes] | combination with NAD treatment ([5]; cell culture, total cellular output) | long term hematopoietic stem cells, total cellular output ([5]; total human bone marrow, CD34+ HSPCs, LTC-IC in culture) | efficacy and tolerability of treatment dose [6]
1 | O=C(Nc1cccc2cc(C(F)(F)F)ccc12)c1cc(CCCF)ccc1O [Compound 1-11] | expands the colony forming hematopoietic stem and progenitor cells (HSPCs) | – | – | – | – | – | – | – | –
2 | Cl.NCCc1ccc(O)c(C(=O)Nc2cccc3ccccc23)c1 [Compound 1-17, 5-(2-Aminoethyl)-2-hydroxy-N-(naphthalen-1-yl)benzamide] | expands the colony forming hematopoietic stem and progenitor cells (HSPCs) | inhibits CD38 and protects NAD+ degradation in vitro; also recorded: Dose dependent inhibition of CD38 | significantly increased in a dose dependent fashion | extends the life span | markedly increased | 1 to 2 | synergies with NAD treatment | expands long term hematopoietic stem cells in cell culture | effective and well tolerated
